According to US9943502B2, “Lung cancer adjuvant therapy” (Texas Tech University System, priority 2014, dated 2018):
“Also recorded” adds a separate entry of the source.

Experiments:
[1] = tested on: lung cancer A549 cells xenografts; test: Treatment of mouse xenografts: tumor growth; type: in vivo, female athymic mice; conditions: intra-tumoral injection three times per week; Cis 2.5 mg/Kg, LMB 2 μg/Kg
Method: Xenograft animal model. The handling of animals was in accordance with the Institutional Animal Care and Use Committee. Female athymic mice, 7-8 weeks of age and 23.5 g in weight (Charles River Laboratory) received subcutaneous injection of 1×10^6 A549 or A549CRM1− cells in the lower flank (n=8/group). Tumor volume was measured by a digital caliper (Thermo Fisher Scientific). The major longitudinal diameter (length) and the major transverse diameter (width) were determined. Tumor volume was calculated based on caliper measurements by the following formula: Tumor volume=½ (length×width^2).
(§1) Treatment of mouse xenografts. Thirty-two female athymic mice, 7-8 weeks of age and 23.5 g in weight (strain code 088, Charles River Laboratory) were each injected subcutaneously with 1×10^6 lung cancer A549 cells in the lower flank. […] All injections were carried out for three times per week. Mice body weights and tumor sizes were measured three times per week.

[2] = in vivo; cited from earlier work
[3] = tested on: normal bronchial epithelial cells; conditions: cited from earlier work
[4] = tested on: A549 cells; test: Array-based SYBR Green RT-PCR (RT2 Profiler PCR array, Human Cancer Drug Targets, 84 genes); type: cell-based
Method: Array-based SYBR® Green RT-PCR. Constitutive gene expression profiling was performed using the RT^2 Profiler™ PCR array to analyze the expression of 84 genes involving in cancer signal pathways (Human Cancer Drug Targets, Qiagen) based on manufacturer's instructions and our previous publications^33, 34. Studies were performed in duplicate for each group.

[5] = tested on: A549 cells; test: Analysis of cell cycle by flow cytometry; type: cell-based; conditions: 25 μM cisplatin and/or 0.5 nM LMB, 24 and 48 h
Method: Analysis of cell cycle by flow cytometry. The cells were harvested after 24 and 48 h of treatment. […] Cell cycle analysis was conducted by a Guava EasyCyte™ Flow Cytometer (Millipore) as previously described^32, 33. Each sample was run in triplicate and each experiment was repeated three times.

[6] = tested on: lung cancer cells; conditions: cited from earlier work
[7] = Treatment of mouse xenografts: body weight and side effects; type: in vivo, female athymic mice; conditions: two weeks after treatment; without deteriorating behavior and health condition
Method: as §1

[8] = tested on: A549CRM1− cells; test: Cell viability assay (MTT); type: cell-based; conditions: FIG. 4A, P<0.05
Method: Cell viability assay. Cell viability was evaluated using the MTT (3-(4,5-dimethylthiazol-2-yl)-2,5-diphenyltetrazolium bromide) assay as previously described^29, 33. […] Studies were performed independently in triplicate.

[9] = tested on: A549 cells; test: Western blot analyses of PARP1, p21 and survivin; type: cell-based; conditions: 24 and 48 h, P<0.05
Method: Western blot analyses. […] Immunoblotting was performed using different primary antibodies and α-tubulin as the internal control.

[10] = tested on: lung tissues; test: Mouse model of NNK-induced lung tumors, Western blot of lung tumors; type: in vivo, FVB/N mice; conditions: NNK-treated mice, P<0.01
Method: Mouse model and NNK-induced lung tumors. Male FVB/N mice are an intermediately susceptible strain with regard to spontaneous lung tumor formation and have been used for studies of NNK-induced lung tumorigenesis^31. Mice were each given two intra-peritoneal injections of 3 mg NNK per week (NNK-treated group, n=8) or 0.9% saline (vehicle control group, n=8). From each group, mice were sacrificed at 32-weeks after the last NNK- or saline-treatment. Lung tissues were fresh frozen or formalin-fixed and paraffin-embedded.

[11] = tested on: BEAS-2B cells; test: Soft agar colony assay of NNK-transformed BEAS-2B cells; type: cell-based, human; conditions: NNK 15 μM for 24 h, then 9 passages (BEAS-2BNNK), P<0.05
Method: (§2) Human normal lung epithelial cells BEAS-2B with NNK exposure/transformation or CRM1 stable overexpression. Human normal bronchial epithelial cell line BEAS-2B was obtained from American Type Culture Collection (ATCC). (1) For short-term NNK exposure, BEAS-2B cells were treated with 0, 10, 75, or 150 μM NNK for 24 and 72 h in triplicate as described in our previous study^29; (2) BEAS-2BNNK, an in vitro transformed cell model derived from BEAS-2B, was generated by exposure to NNK (15 μM) for 24 h and then continuously sub-cultured for 9 passages. […] Similarly, BEAS-2B was transfected with vector control for comparison. BEAS-2B, BEAS-2BNNK, and BEAS-2BCRM1+ cells were cultured in LHC-9 medium (Invitrogen) containing 100 U penicillin/mL and 100 μg/mL streptomycin.
Soft agar colony assay (Anchorage independent growth assay). Cells were suspended at 5×10^4 cells/mL for BEAS-2B, BEAS-2BNNK, and BEAS-2BCRM1+ or 2×10^4 cells/mL for A549 and A549CRM1− cells in growth medium containing 0.35% agar. Cell suspension was added to a 6-well tissue culture plate pre-coated with 0.7% solid agar. After 9-11 days of incubation (9 days for A549 and 11 days for BEAS-2B), the number of colonies/microscope area (6 randomly selected areas/well) was counted and their sizes were analyzed using cell staining (0.005% Crystal Violet) by microscope. This study was done in triplicate.

[12] = tested on: CRM1; test: CRM1 expression (qRT-PCR, Western blot) in NNK-transformed BEAS-2B cells; type: cell-based, human; conditions: BEAS-2BNNK, P<0.05
Method: as §2
Isolation of total RNA and quantitative real-time PCR (qRT-PCR). Total RNA was isolated using an RiNeasy® plus mini kit (Qiagen) following the manufacturer protocol. One-Step RT-PCR kit with SYBR green was used for amplification of total RNA (75 ng) by following the manufacturer's protocol (BioRad) and our recent publication^32. […] Threshold cycle number (Ct value) was analyzed using CFX Manager Software (Bio-Rad). The Ct value of CRM1 was normalized to the Ct value of GAPDH from same sample and the fold change in the expression was calculated by using the ΔΔCt method. […]

[13] = tested on: phospho-p53 (Thr55); test: phospho-p53 (Thr55) protein expression in BEAS-2B cells after NNK exposure; type: cell-based, human
Method: as §2

[14] = cisplatin 10 and 25 μM with or without 0.5 nM LMB

## CCC(=C/[C@H](C)C/C=C/C(C)=C/[C@@H](C)C(=O)[C@@H](C)[C@H](O)[C@@H](C)C/C(C)=C/C(=O)O)/C=C/[C@@H]1OC(=O)C=C[C@@H]1C [LMB, leptomycin B]
[1]
  tumor growth compared to the vehicle-treated control: growth curves followed a similar trend
[2]
  side effects in the phase I clinical trial: malaise and anorexia
[3]
  effects on normal bronchial epithelial cells: minimal effects
[4]; 0.5 nM LMB
  gene expression profile compared to the control group: No significant difference
[5]
  cell cycle distribution compared with the control: did not alter the cell cycle distribution
[6]
  effect on lung cancer cells: inhibit lung cancer cell growth and induce cytotoxicity

## N.N.[Cl][Pt][Cl] [Cis, cisplatin]
[1]
  tumor growth compared to the vehicle-treated control: significant decrease in tumor growth; also recorded: significantly delayed tumor growth
[7]
  body weight for mice: started to decrease gradually
[8]
  sensitivity of A549CRM1− cells compared with A549 cells: even more sensitive
[4]; 25 μM cisplatin, P<0.05
  expression level of AURKA, AURKB, CDK1, HIF1A, MDM4, PLK1, PLK4, and TNKS compared to the control: significantly decreased expression level
  expression of CTSB, GRB2, MDM2, and NF-κB compared to the control: increased expression
[4]; A549 cells
  NF-κB expression: increased expression of NF-κB
[5]
  cell cycle distribution compared with the control: significantly higher proportion of cells in S and G2/M phases
[9]
  survivin expression level compared to controls: significantly decreased
[9]; [14]
  PARP1 protein expression compared to vehicle-treated cells: significantly increased in a dose-response manner
  p21 protein expression compared to vehicle-treated cells: significantly increased in a dose-response manner

## CN(CCCC(=O)c1cccnc1)N=O [NNK, 4-(methylnitrosamino)-1-(3-pyridyl)-1-butanone]
[10]; 32 weeks after last treatment
  CRM1 expression in lung tumor tissues compared with normal tissues: increased CRM1 expression
[10]
  p-p53 at Thr55 in lung tumors compared with normal lung tissues: significant increase
[11]
  soft agar colony number and colony size compared with vehicle-treated BEAS-2B cells: significant increase in both colony number and colony size
[12]
  CRM1 expression at the mRNA level compared to vehicle-treated BEAS-2B cells: 2.6 folds
  CRM1 expression at the protein level compared to vehicle-treated BEAS-2B cells: ~1.5 folds
[13]; BEAS-2BNNK cells, FIG. 2B
  phosphorylated-p53 (p-p53) at Thr55 in NNK-transformed cells: overexpressed
[13]; NNK 10, 75 and 150 μM for 24 and 72 h, P<0.05
  protein expression levels of p-p53 at Thr55 compared to vehicle-treated BEAS-2B cells: dose-dependent decrease
